Patent US20250367138A1 (Novocure GmbH, priority 2024, published 2025)

Experiments:
[1] = system: GBM cell lines U251, LN229, and U87; experiment: Live cell count of GBM cell lines treated with MGO and TTFields (Inovitro system); assay type: cell-based
Source text: At the experimental endpoint cells were visualized by microscopy, counted, and taken for protein or RNA extraction for further analysis.
GBM cell lines U251, LN229, and U87 were used in this Example. […] The Inovitro™ system was operated with low intensity (1-3 V/cm) and medium frequency (200 kHz) alternating electric fields, which have a selective antimitotic effect on cancer cells. […] In addition, the arrangement of alpha and gamma tubulin was visualised by immunofluorescence.
The results of each experiment are indicated as cell count (live cells).

[2] = system: GBM cells; experiment: Preliminary work: MGO-induced glycation and invasion of GBM cells; assay type: cell-based
Source text: Glioblastoma (GBM) is a highly aggressive and invasive brain tumor.

SMILES: CC(=O)C=O [MGO, methylglyoxal]
- proliferation of cells (cell count) ([1]; 0.1 mM MGO alone, FIG. 2): increased proliferation
- effect of TTFields on proliferation of cells under MGO ([1]; 0.1 mM MGO plus TTFields (200 kHz, 1-3 V/cm), FIG. 2): reduce the increased proliferation
- rate of apoptosis with additional TTFields ([1]; 0.3 mM MGO over the entire period plus TTFields (200 kHz, 1-3 V/cm)): enhanced
- rate of apoptosis ([1]; 0.3 mM MGO over the entire period, alone, FIGS. 3-4): increased rate of apoptosis
- combination effect of concomitant TTFields and MGO (live cell count) ([1]; Example 2, experiments A-H: 0.1 or 0.3 mmol/L MGO, TTFields 24-72 h, U251, LN229, U87, FIGS. 5-12): synergistic effect
- glycation of cell surface proteins [2]: induces glycation of cell surface proteins
- invasion / phenotype ([2]; associated with MGO-induced glycation): increased invasion
